Assay results published in ChEMBL document CHEMBL1926576, “Fragment based lead discovery of small molecule inhibitors for the EPHA4 receptor tyrosine kinase” (Eur J Med Chem, 2012).

Assays:
[1] = molecular target: Myosin light chain kinase, smooth muscle (Homo sapiens) (UniProt Q15746); assay: Inhibition of SmMLCK assessed as residual activity at 10 uM using [33P-ATP] by radiometric filter binding assay
[2] = molecular target: Testis-specific serine/threonine-protein kinase 1 (Homo sapiens) (UniProt Q9BXA7); assay: Inhibition of TSSK1 assessed as residual activity at 10 uM using [33P-ATP] by radiometric filter binding assay
[3] = molecular target: Interleukin-1 receptor-associated kinase 4 (Homo sapiens) (UniProt Q9NWZ3); assay: Inhibition of IRAK4 assessed as residual activity at 10 uM using [33P-ATP] by radiometric filter binding assay
[4] = molecular target: Serine/threonine-protein kinase pim-3 (Homo sapiens) (UniProt Q86V86); assay: Inhibition of PIM3 assessed as residual activity at 10 uM using [33P-ATP] by radiometric filter binding assay
[5] = molecular target: Serine/threonine-protein kinase Sgk1 (Homo sapiens) (UniProt O00141); assay: Inhibition of SGK1 assessed as residual activity at 10 uM using [33P-ATP] by radiometric filter binding assay
[6] = molecular target: Serine/threonine-protein kinase Chk1 (Homo sapiens) (UniProt O14757); assay: Inhibition of CHK1 assessed as residual activity at 10 uM using [33P-ATP] by radiometric filter binding assay
[7] = molecular target: Serine/threonine-protein kinase N2 (Homo sapiens) (UniProt Q16513); assay: Inhibition of PRK2 assessed as residual activity at 10 uM using [33P-ATP] by radiometric filter binding assay
[8] = molecular target: Protein kinase C alpha type (Homo sapiens) (UniProt P17252); assay: Inhibition of PKCalpha assessed as residual activity at 10 uM using [33P-ATP] by radiometric filter binding assay
[9] = molecular target: Misshapen-like kinase 1 (Homo sapiens) (UniProt Q8N4C8); assay: Inhibition of MINK1 assessed as residual activity at 10 uM using [33P-ATP] by radiometric filter binding assay
[10] = molecular target: Mitogen-activated protein kinase 1 (Homo sapiens) (UniProt P28482); assay: Inhibition of ERK2 assessed as residual activity at 10 uM using [33P-ATP] by radiometric filter binding assay
[11] = molecular target: Eukaryotic elongation factor 2 kinase (Homo sapiens) (UniProt O00418); assay: Inhibition of EF2K assessed as residual activity at 10 uM using [33P-ATP] by radiometric filter binding assay
[12] = molecular target: Mitogen-activated protein kinase 14 (Homo sapiens) (UniProt Q16539); assay: Inhibition of p38alpha MAPK assessed as residual activity at 10 uM using [33P-ATP] by radiometric filter binding assay
[13] = molecular target: Serine/threonine-protein kinase PAK 5 (Homo sapiens) (UniProt Q9P286); assay: Inhibition of PAK5 assessed as residual activity at 10 uM using [33P-ATP] by radiometric filter binding assay
[14] = molecular target: Tyrosine-protein kinase ZAP-70 (Homo sapiens) (UniProt P43403); assay: Inhibition of ZAP70 assessed as residual activity at 10 uM using [33P-ATP] by radiometric filter binding assay
[15] = molecular target: Eukaryotic translation initiation factor 2-alpha kinase 3 (Homo sapiens) (UniProt Q9NZJ5); assay: Inhibition of EIF2AK3 assessed as residual activity at 10 uM using [33P-ATP] by radiometric filter binding assay
[16] = molecular target: Receptor-interacting serine/threonine-protein kinase 2 (Homo sapiens) (UniProt O43353); assay: Inhibition of RIPK2 assessed as residual activity at 10 uM using [33P-ATP] by radiometric filter binding assay
[17] = molecular target: Dual specificity tyrosine-phosphorylation-regulated kinase 1A (Homo sapiens) (UniProt Q13627); assay: Inhibition of DYRK1A assessed as residual activity at 10 uM using [33P-ATP] by radiometric filter binding assay
[18] = molecular target: Mitogen-activated protein kinase kinase kinase 11 (Homo sapiens) (UniProt Q16584); assay: Inhibition of MLK3 assessed as residual activity at 10 uM using [33P-ATP] by radiometric filter binding assay
[19] = molecular target: Serine/threonine-protein kinase PAK 6 (Homo sapiens) (UniProt Q9NQU5); assay: Inhibition of PAK6 assessed as residual activity at 10 uM using [33P-ATP] by radiometric filter binding assay
[20] = molecular target: Dual specificity testis-specific protein kinase 1 (Homo sapiens) (UniProt Q15569); assay: Inhibition of TESK1 assessed as residual activity at 10 uM using [33P-ATP] by radiometric filter binding assay
[21] = molecular target: Serine/threonine-protein kinase PLK1 (Homo sapiens) (UniProt P53350); assay: Inhibition of PLK1 assessed as residual activity at 10 uM using [33P-ATP] by radiometric filter binding assay
[22] = molecular target: Cyclin-dependent kinase 2/cyclin A (Homo sapiens) (UniProt P24941+P20248+P78396); assay: Inhibition of CDK2/Cyclin A assessed as residual activity at 10 uM using [33P-ATP] by radiometric filter binding assay; assay type: protein-complex assay
[23] = molecular target: 3-phosphoinositide-dependent protein kinase 1 (Homo sapiens) (UniProt O15530); assay: Inhibition of PDK1 assessed as residual activity at 10 uM using [33P-ATP] by radiometric filter binding assay
[24] = molecular target: Homeodomain-interacting protein kinase 2 (Homo sapiens) (UniProt Q9H2X6); assay: Inhibition of HIPK2 assessed as residual activity at 10 uM using [33P-ATP] by radiometric filter binding assay

Dual specificity testis-specific protein kinase 1 (Homo sapiens), sequence (Q15569 whole entry, looked up): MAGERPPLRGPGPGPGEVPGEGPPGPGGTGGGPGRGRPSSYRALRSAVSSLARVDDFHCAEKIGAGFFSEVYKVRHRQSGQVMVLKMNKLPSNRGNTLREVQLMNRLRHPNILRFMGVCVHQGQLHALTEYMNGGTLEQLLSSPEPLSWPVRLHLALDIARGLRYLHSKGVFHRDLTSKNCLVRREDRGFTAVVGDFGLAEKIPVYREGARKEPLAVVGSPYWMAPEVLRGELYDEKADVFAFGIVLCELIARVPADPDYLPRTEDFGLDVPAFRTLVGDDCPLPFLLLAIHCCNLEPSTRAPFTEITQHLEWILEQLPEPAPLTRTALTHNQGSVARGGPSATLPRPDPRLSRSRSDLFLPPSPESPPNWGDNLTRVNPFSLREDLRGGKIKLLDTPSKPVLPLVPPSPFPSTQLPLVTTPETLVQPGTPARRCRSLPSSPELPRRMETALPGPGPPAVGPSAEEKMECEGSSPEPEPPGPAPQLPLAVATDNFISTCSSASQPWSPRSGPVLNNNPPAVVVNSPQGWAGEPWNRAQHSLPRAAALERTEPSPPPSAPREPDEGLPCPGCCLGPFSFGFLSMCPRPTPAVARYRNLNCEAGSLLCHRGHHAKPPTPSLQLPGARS
Myosin light chain kinase, smooth muscle (Homo sapiens), sequence (Q15746 whole entry): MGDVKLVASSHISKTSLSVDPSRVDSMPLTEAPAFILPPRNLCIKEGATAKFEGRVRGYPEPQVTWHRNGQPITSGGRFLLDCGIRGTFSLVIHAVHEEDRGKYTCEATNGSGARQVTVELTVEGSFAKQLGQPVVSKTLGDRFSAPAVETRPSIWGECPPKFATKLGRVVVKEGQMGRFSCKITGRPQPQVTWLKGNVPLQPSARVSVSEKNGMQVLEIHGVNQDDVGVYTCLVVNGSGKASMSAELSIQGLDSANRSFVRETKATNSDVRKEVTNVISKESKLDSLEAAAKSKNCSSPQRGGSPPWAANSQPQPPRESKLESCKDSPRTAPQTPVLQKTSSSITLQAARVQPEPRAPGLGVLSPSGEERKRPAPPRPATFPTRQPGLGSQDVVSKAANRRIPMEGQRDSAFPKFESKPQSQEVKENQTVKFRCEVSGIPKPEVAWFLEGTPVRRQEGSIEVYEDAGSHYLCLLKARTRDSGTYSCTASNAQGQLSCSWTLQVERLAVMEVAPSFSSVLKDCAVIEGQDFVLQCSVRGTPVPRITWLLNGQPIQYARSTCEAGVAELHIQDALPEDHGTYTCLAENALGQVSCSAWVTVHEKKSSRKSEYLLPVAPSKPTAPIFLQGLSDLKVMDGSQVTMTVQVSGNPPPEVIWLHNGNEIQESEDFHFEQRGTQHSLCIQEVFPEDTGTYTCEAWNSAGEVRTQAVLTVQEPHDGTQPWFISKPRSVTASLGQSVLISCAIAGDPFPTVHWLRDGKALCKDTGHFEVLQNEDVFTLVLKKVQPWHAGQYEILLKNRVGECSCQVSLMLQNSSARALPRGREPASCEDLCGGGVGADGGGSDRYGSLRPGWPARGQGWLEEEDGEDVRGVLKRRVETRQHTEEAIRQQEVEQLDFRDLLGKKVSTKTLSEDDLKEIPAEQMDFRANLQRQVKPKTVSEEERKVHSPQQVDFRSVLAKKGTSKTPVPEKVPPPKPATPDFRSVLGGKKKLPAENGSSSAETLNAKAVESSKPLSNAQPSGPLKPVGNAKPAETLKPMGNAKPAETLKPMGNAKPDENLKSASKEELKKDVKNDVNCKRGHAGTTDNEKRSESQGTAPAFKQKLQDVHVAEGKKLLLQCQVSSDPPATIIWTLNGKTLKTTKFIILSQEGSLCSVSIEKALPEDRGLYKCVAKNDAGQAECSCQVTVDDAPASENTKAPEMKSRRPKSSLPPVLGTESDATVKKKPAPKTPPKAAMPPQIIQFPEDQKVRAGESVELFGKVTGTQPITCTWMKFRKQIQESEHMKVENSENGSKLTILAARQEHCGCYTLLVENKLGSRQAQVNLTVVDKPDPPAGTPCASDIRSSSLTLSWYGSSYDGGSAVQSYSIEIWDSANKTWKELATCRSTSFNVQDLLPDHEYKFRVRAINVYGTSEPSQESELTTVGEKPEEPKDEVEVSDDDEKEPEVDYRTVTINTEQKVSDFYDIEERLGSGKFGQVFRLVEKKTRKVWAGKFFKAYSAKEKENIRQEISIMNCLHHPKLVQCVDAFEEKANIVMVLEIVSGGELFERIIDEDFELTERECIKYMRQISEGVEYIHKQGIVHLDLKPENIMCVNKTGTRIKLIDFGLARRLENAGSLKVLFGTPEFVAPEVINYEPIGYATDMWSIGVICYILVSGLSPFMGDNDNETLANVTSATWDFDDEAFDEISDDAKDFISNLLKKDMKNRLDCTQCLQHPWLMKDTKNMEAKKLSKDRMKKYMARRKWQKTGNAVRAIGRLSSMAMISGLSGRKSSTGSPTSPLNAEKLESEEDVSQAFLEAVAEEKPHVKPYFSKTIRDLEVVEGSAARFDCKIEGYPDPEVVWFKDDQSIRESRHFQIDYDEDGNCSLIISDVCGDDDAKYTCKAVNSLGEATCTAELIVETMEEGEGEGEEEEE
3-phosphoinositide-dependent protein kinase 1 (Homo sapiens), sequence (O15530 whole entry, looked up): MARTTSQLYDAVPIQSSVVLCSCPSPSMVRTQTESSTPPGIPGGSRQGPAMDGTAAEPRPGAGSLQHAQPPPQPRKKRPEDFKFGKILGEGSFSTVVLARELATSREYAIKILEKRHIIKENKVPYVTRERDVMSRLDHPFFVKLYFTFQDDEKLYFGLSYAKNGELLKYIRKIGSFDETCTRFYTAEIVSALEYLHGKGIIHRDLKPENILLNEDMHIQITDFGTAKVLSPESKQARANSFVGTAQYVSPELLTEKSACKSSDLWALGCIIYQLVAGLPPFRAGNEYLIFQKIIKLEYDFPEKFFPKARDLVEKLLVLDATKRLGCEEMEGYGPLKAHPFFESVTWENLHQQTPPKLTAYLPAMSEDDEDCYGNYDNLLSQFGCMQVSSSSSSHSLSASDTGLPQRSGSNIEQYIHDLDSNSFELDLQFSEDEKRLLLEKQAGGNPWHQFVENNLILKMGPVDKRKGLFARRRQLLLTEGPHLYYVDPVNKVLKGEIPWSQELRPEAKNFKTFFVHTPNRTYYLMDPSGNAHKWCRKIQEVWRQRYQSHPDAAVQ
Serine/threonine-protein kinase N2 (Homo sapiens), sequence (Q16513 whole entry, looked up): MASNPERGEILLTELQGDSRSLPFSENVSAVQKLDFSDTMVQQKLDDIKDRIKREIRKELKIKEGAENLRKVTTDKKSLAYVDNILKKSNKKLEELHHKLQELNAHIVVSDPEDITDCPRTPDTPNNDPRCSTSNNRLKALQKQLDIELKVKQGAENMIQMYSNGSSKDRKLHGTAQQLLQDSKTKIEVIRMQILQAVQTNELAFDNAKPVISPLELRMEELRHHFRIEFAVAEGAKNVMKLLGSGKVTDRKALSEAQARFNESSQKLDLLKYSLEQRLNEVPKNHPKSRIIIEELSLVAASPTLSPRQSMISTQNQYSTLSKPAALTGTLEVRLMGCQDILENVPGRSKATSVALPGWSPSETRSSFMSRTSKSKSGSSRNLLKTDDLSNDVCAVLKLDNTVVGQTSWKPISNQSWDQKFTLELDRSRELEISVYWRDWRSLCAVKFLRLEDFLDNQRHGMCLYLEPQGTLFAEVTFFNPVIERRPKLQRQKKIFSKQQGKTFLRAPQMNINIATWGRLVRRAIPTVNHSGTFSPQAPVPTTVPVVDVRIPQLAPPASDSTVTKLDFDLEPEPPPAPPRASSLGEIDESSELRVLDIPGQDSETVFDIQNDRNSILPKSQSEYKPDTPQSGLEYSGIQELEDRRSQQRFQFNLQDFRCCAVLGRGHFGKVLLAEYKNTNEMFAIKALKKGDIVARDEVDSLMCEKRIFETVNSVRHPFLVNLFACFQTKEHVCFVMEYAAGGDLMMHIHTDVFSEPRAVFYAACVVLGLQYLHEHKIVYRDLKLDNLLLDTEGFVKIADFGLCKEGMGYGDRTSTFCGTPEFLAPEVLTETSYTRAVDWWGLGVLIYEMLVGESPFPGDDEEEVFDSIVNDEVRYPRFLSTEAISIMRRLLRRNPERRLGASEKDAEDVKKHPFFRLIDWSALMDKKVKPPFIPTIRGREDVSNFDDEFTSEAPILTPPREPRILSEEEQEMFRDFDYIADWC
Testis-specific serine/threonine-protein kinase 1 (Homo sapiens), sequence (Q9BXA7 whole entry): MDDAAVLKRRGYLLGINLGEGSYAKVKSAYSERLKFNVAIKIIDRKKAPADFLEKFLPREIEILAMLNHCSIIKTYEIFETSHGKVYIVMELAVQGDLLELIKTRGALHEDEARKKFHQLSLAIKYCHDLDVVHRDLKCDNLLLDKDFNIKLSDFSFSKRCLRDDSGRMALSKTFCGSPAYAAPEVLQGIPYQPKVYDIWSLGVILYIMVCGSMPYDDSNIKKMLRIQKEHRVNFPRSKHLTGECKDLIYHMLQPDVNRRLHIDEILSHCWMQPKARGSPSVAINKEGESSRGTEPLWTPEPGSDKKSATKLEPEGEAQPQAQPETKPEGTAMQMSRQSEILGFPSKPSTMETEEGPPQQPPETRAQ

Activity [1]: 63%
Activity [2]: 75%
Activity [3]: 55%
Activity [4]: 82%
Activity [5]: 85%
Activity [6]: 100%
Activity [7]: 89%
Activity [8]: 112%
Activity [9]: 65%
Activity [10]: 98%
Activity [11]: 114%
Activity [12]: 54%
Activity [13]: 92%
Activity [14]: 107%
Activity [15]: 82%
Activity [16]: 17%
Activity [17]: 60%
Activity [18]: 60%
Activity [19]: 103%
Activity [20]: 23%
Activity [21]: 93%
Activity [22]: 87%
Activity [23]: 103%
Activity [24]: 98%
Compound: Cc1ccc(F)cc1-c1nc2[nH]nc(N)c2c2c1CCCC2
